Results as given in patent US20040023803A1, “Method for producing a solid herbicide formulation” (priority 2000, published 2004).

Test: Storage stability test of solid formulations (14 days at 54° C., CIPAC MT 46; active ingredient and AMTT content by quantitative HPLC)
Format: physicochemical
Details: for Preparation Concentration % by weight: zero value before storage; for Storage 14 days, 54° C. active ingredient content (rel.): relative to zero value
Experimental: The solid formulations prepared by the process according to the invention are storage-stable. In accordance with a storage test laid down by the authorization authorities, they are stored for 14 days at 54° C. […] The active ingredient content and the AMTT content of the formulations were each determined by means of quantitative HPLC. […] The samples were then analyzed and compared with the comparative value at the beginning of the storage (zero value). The active ingredient content is shown in each case as relative quantity based on the zero value (as a percentage). The storage experiments were carried out following the method CIPAC MT 46. The shelf life of a product is estimated by short-term storage at elevated temperature.

[1] = Table 2, Example 1 formulation, pH of the suspension 5.1
[2] = Table 2, Example 1 formulation, pH of the suspension 6
[3] = Table 2, Example 1 formulation, pH of the suspension 7
[4] = Table 2, Example 1 formulation, pH of the suspension 8
[5] = Table 2, Example 1 formulation, pH of the suspension 9
[6] = Table 3 (headed Example 3), tritosulfuron + flucarbazone-sodium formulation, pH of the suspension 6.5
[7] = Table 3 (headed Example 3), tritosulfuron + flucarbazone-sodium formulation, pH of the suspension 7.0
[8] = Table 4 (headed Example 4), tritosulfuron + dicamba formulation, pH of the suspension 6
[9] = Table 4 (headed Example 4), tritosulfuron + dicamba formulation, pH of the suspension 7
[10] = Table 4 (headed Example 4), tritosulfuron + dicamba formulation, pH of the suspension 8
[11] = Table 4 (headed Example 4), tritosulfuron + dicamba formulation, pH of the suspension 9

| Compound | Preparation Concentration % by weight [1] [% by weight] | Preparation Concentration % by weight [2] [% by weight] | Preparation Concentration % by weight [3] [% by weight] | Preparation Concentration % by weight [4] [% by weight] | Preparation Concentration % by weight [5] [% by weight] | Preparation Concentration % by weight [6] [% by weight] | Preparation Concentration % by weight [7] [% by weight] | Preparation Concentration % by weight [8] [% by weight] | Preparation Concentration % by weight [9] [% by weight] | Preparation Concentration % by weight [10] [% by weight] | Preparation Concentration % by weight [11] [% by weight] | Storage 14 days, 54° C. active ingredient content (rel.) [8] | Storage 14 days, 54° C. active ingredient content (rel.) [9] | Storage 14 days, 54° C. active ingredient content (rel.) [10] | Storage 14 days, 54° C. active ingredient content (rel.) [11] | Storage 14 days, 54° C. active ingredient content (rel.) [6] | Storage 14 days, 54° C. active ingredient content (rel.) [7] | also measured |
| --- | --- | --- | --- | --- | --- | --- | --- | --- | --- | --- | --- | --- | --- | --- | --- | --- | --- | --- |
| COc1nc(N)nc(C(F)(F)F)n1 [AMTT, 2-amino-4-methoxy-6-trifluoromethyltriazine] | 0.03 | 0.03 | 0.033 | 0.026 | 0.035 | 0.025 | 0.019 | 0.009 | 0.007 | 0.007 | 0.006 | – | – | – | – | – | – | Storage 14 days, 54° C. % by weight (AMTT content) [1]: 0.249 % by weight; Storage 14 days, 54° C. % by weight (AMTT content) [2]: 0.250 % by weight; Storage 14 days, 54° C. % by weight (AMTT content) [3]: 0.178 % by weight; Storage 14 days, 54° C. % by weight (AMTT content) [4]: 0.056 % by weight; Storage 14 days, 54° C. % by weight (AMTT content) [5]: 0.234 % by weight; Storage 14 days, 54° C. % by weight (AMTT content) [6]: 0.164 % by weight; Storage 14 days, 54° C. % by weight (AMTT content) [7]: 0.065 % by weight; Storage 14 days, 54° C. % by weight (AMTT content) [8]: 0.470 % by weight; Storage 14 days, 54° C. % by weight (AMTT content) [9]: 0.011 % by weight; Storage 14 days, 54° C. % by weight (AMTT content) [10]: 0.007 % by weight; Storage 14 days, 54° C. % by weight (AMTT content) [11]: 0.007 % by weight |
| COc1c(Cl)ccc(Cl)c1C(=O)O [dicamba] | – | – | – | – | – | – | – | 60.4 | 58.7 | 58.5 | 58.0 | 100 (rel.) % (rel.) | 100 (rel.) % (rel.) | 100 (rel.) % (rel.) | 101.9 (rel.) % (rel.) | – | – | – |
| COc1nn(C(=O)[N-]S(=O)(=O)c2ccccc2OC(F)(F)F)c(=O)n1C.[Na+] [flucarbazone-sodium] | – | – | – | – | – | 24.1 | 24.3 | – | – | – | – | – | – | – | – | 98.8 (rel.) % (rel.) | 99.5 (rel.) % (rel.) | – |
| COc1nc(NC(=O)NS(=O)(=O)c2ccccc2C(F)(F)F)nc(C(F)(F)F)n1 [tritosulfuron, N[[[4-methoxy-6-(trifluoromethyl)-1,3,5-triazin-2-yl]amino]carbonyl]-2-(trifluoromethyl)benzenesulfonamide] | 74.2 | 72.3 | 71.7 | 67.5 | 72.4 | 40.5 | 41.1 | 11.9 | 11.9 | 11.3 | 10.4 | 91.3 (rel.) % (rel.) | 99.7 (rel.) % (rel.) | 98.8 (rel.) % (rel.) | 102.6 (rel.) % (rel.) | 98.8 (rel.) % (rel.) | 100 (rel.) % (rel.) | Storage 14 days, 54° C. active ingredient content (rel.) [1]: 99.3 (rel.) % (rel.); Storage 14 days, 54° C. active ingredient content (rel.) [2]: 99.9 (rel.) % (rel.); Storage 14 days, 54° C. active ingredient content (rel.) [3]: 100.8 (rel.) % (rel.); Storage 14 days, 54° C. active ingredient content (rel.) [4]: 100.5 (rel.) % (rel.); Storage 14 days, 54° C. active ingredient content (rel.) [5]: 97.7 (rel.) % (rel.) |
